From PubChem BioAssay (NCI)
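96-well plates; 48 h exposure; 5 concentrations. Endpoints by linear interpolation between flanking doses. Not reached: highest tested concentration assigned. Here, GI50 denotes the concentration required for 50% inhibition of growth. TGI: concentration producing complete growth inhibition.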

Key:
Test in all cases: inhibition of tumour cell growth, NCI panel, 48 h
SF-295 CNS = test system: SF-295 CNS
MCF7 breast = test system: MCF7 breast
M14 melanoma = test system: M14 melanoma
HOP-92 NSCLC = test system: HOP-92 NSCLC
DU-145 prostate = test system: DU-145 prostate
UO-31 renal = test system: UO-31 renal
SK-MEL-28 melanoma = test system: SK-MEL-28 melanoma
NCI-H460 lung = test system: NCI-H460 lung
MALME-3M melanoma = test system: MALME-3M melanoma
HS 578T breast = test system: HS 578T breast

SMILES | TGI (SF-295 CNS) [µM] | TGI (MCF7 breast) [µM] | TGI (M14 melanoma) [µM] | TGI (HOP-92 NSCLC) [µM] | TGI (DU-145 prostate) [µM] | TGI (UO-31 renal) [µM] | TGI (SK-MEL-28 melanoma) [µM] | TGI (NCI-H460 lung) [µM] | TGI (MALME-3M melanoma) [µM] | TGI (HS 578T breast) [µM] | GI50 (MCF7 breast) [µM] | GI50 (HOP-92 NSCLC) [µM] | GI50 (MALME-3M melanoma) [µM] | GI50 (HS 578T breast) [µM] | GI50 (DU-145 prostate) [µM] | GI50 (UO-31 renal) [µM]
Cn1c(SCc2ccc([N+](=O)[O-])cc2)nnc1C12CC3CC(CC(C3)C1)C2 | > 10 | > 10 | > 10 | > 10 | > 10 | > 10 | > 10 | > 10 | > 10 | > 10 |  |  |  |  |  | 
C[C@]12CC[C@@H]3c4cc(C=O)c(OCc5ccccc5)cc4CC[C@H]3[C@@H]1CCC2OCc1ccccc1 (stereo partly drawn) | > 100 | > 100 | > 100 | > 100 | > 100 | > 100 | > 100 | > 100 |  | > 100 |  |  |  |  |  | 
COc1ccc(CNCCN2C(=O)c3ccc4c5c(ccc(c35)C2=O)C(=O)N(CCNCc2ccc(OC)c(OC)c2OC)C4=O)c(OC)c1OC |  | 1.15 |  | 3.44 |  |  |  |  | 0.297 | 2.81 | 0.222 | 1.56 | 0.112 | 0.985 |  | 
N#Cc1cc([N+](=O)[O-])ccc1NC(=O)C(=O)Nn1c(=S)[nH]c2ccccc2c1=O | > 100 |  | > 100 | > 100 |  | > 100 | > 100 | > 100 | > 100 |  |  |  |  |  |  | 
Cc1ccc2c(=O)cc(-c3ccccc3)[nH]c2n1 |  | > 55 |  | > 55.2 | > 23.7 | > 81.8 | > 100 | > 100 | > 100 |  |  |  |  |  |  | 
CCN1CCC(O)(/C=C/c2ccc(Cl)c(Cl)c2)C(C(=O)/C=C/c2ccc(Cl)c(Cl)c2)C1 (stereo not drawn) | 1.74 | 2.67 | 1.76 | 1.58 | 3.24 | 2.3 | 7.97 | 2.02 | 2.5 | 2.42 |  |  |  |  |  | 
COc1cccc2c1CCc1sc(CN3CCN(C)CC3)nc1-2 | > 100 | > 100 | > 100 |  | > 100 | > 100 | > 100 | > 100 | > 100 | > 100 |  |  |  |  |  | 
CC(C)(C)c1ccc(OCCOc2ccc(C(C)(C)C)cc2NC=O)c(NC=O)c1 | 25 | 23.2 | 20.7 | 23.5 | > 87.9 | 30.9 | 32.6 | 34.3 | 24.8 | 42.8 |  |  |  |  |  | 
Cn1cnc([N+](=O)[O-])c1Sc1nnc(-c2ccc(Cl)cc2)n1C | > 100 |  | 26.6 | 25.8 |  | 32.8 | 27.4 | 55.7 | 23 |  |  |  |  |  |  | 
CCOC(=O)C1=C(C)NC(c2ccccc2)=C(C(=O)OCc2ccccc2)C1C#Cc1ccccc1 (stereo not drawn) | > 100 | > 100 | > 100 |  | > 100 | > 100 |  |  | > 100 | > 100 |  |  |  |  |  | 
Cc1cccc(N=Nc2ccc(O)c(CN(C)C)c2)c1 | 86.5 | > 100 | 62.2 | > 100 |  | 51.5 | 36.9 | 34.8 | 21.8 | 44.9 |  |  |  |  |  | 
O=C(N/N=C/c1ccc(O)cc1)NNCCO | > 100 | > 100 | > 100 |  | > 100 | > 100 | > 100 | > 100 | > 100 | > 100 |  |  |  |  |  | 
CCCN1CCN(c2ccc3nc(-c4ccc5nc(-c6ccc(OCC)cc6)[nH]c5c4)[nH]c3c2)CC1 |  |  |  | 28.4 | 2.78 | 43.9 |  |  |  | 50.1 |  | 5.05 |  | 3.59 | 1.33 | 14.3
Cc1nc2cc3[nH]c4ccccc4c(=O)c3cc2s1 | > 100 |  | > 100 | > 100 |  | > 100 |  | > 100 | > 100 |  |  |  |  |  |  | 
C#CCN1C(=O)CN2C(Cl)(Cl)C2(c2ccccc2)c2cc(Cl)ccc21 (stereo not drawn) | > 100 |  | > 100 | > 100 |  | > 100 | > 100 | > 100 | > 100 |  |  |  |  |  |  | 
CCN(CC)CCNC(=O)C1COc2ccc(-c3cc(=O)c4ccccc4o3)cc2O1 (stereo not drawn) | 39.3 | 44.6 |  | 53.9 |  | 29.6 | 33.4 | 36.2 | 30.3 |  |  |  |  |  |  | 
O=C1C2Cc3ccccc3CN2C(=O)N1CN1CCCCC1 (stereo not drawn) | > 100 |  | > 100 |  |  | > 100 | > 100 | > 100 | > 100 |  |  |  |  |  |  | 
c1ccc(C2SCc3nc4ccccc4n32)cc1 (stereo not drawn) | > 100 |  | > 100 | > 100 |  | > 100 | > 100 | > 100 | > 100 |  |  |  |  |  |  | 
COC(=O)C12CCC(CC1=O)C2(C)C (stereo not drawn) | > 100 |  | > 100 | > 100 |  | > 100 | > 100 | > 100 | > 100 |  |  |  |  |  |  | 
CN1C(=O)c2c(c3c4ccccc4n(C)c3c3c2c2ccccc2n3C)C1=O | > 100 | > 100 | > 100 | > 100 | > 100 | > 100 | > 100 | > 100 | > 100 |  |  |  |  |  |  | 
O=[N+]([O-])c1cc(-c2ccc([As](=O)(O)O)cc2)ccc1[As](=O)(O)O | > 100 |  | > 100 | > 100 | > 100 | > 100 | > 100 | > 100 | > 100 | > 100 |  |  |  |  |  | 
CC(=O)O[C@H]1C(=O)[C@@]2(C)C(C(OC(=O)c3ccccc3)[C@]3(O)CC(OC(=O)C(O)C(NC(=O)c4cccc(Cl)c4)c4ccccc4)C(C)=C1C3(C)C)[C@]1(OC(C)=O)CO[C@@H]1C[C@@H]2O (stereo partly drawn) | > 10 | > 10 | > 10 | > 10 | 5.58 |  |  | > 10 | > 10 |  |  |  |  |  |  | 
CCOC1=C2N=C(C(CC)c3ccc(F)cc3)N=C2C(=O)c2ccccc21 (stereo not drawn) | 63.7 |  | > 68.3 | 66.3 |  | 55.5 | > 89.4 | > 79.8 | 61.8 |  |  |  |  |  |  | 
CCN1CC2(CO)CCC(OC)C34C5CC6C(OC)CC(O)(C5C6OC)C(O)(C(OC)C23)C14 (stereo not drawn) | > 375 | > 375 |  | > 375 |  | > 375 | > 375 | > 375 | > 375 |  |  |  |  |  |  | 
COC(=O)c1cc(NC(=O)Cn2c3ccccc3c3ccccc32)cn1C | 86.3 | > 100 | > 100 |  | > 100 | > 100 | > 100 | > 100 | > 100 | 42.4 |  |  |  |  |  | 
